Experimental data: patent US20020143012A1, “Phenoxazine analogs useful as amyloid aggregation inhibitors and treatment of alzheimer's disease and disorders related to amyloidosis” (priority 2000, published 2002)
Where “and” joins values, the source holds several entries; their conditions need not be identical. Equal values may be shown once. Read-outs that look alike come from different tables or passages of the source.

Assays:
[1] = target: T1, Aβ(1-40) (Homo sapiens, UniProt P05067); assay: BASSR (Beta-Amyloid Self-Seeding Radioassay), inhibitors of self-seeded amyloid fibril growth; format: biochemical; details: 30 μM soluble Aβ(1-40), 125I-labeled Aβ(1-40), 37° C. 3 to 5 hours; replicate values; ppt = precipitate formed at the indicated concentration
T1 construct: Soluble Aβ(1-40) peptide (Bachem, Torrance, Calif.); purchased Bachem, Torrance, Calif
Protocol: 1. BASSR (Beta-Amyloid Self-Seeding Radioassay)
(§1) An assay for inhibitors of self-seeded amyloid fibril growth
(§2) Assay Buffer—50 mM sodium phosphate, pH 7.5, 100 mM NaCl, 0.02% NaN3, 1 M urea (filter and store at 4° C.)
Soluble Aβ(1-40) peptide (Bachem, Torrance, Calif.)—2.2 mg/mL in […] deionized H2O (is stored in aliquots at −20° C.; is kept on ice when thawed) will self-seed after 1 week storage. Typically, the solution is stored until no lag phase is seen in the assay.
^125I-labeled Aβ(1-40)—150K to 350K cpm/μL in 100% acetonitrile−0.1% trifluoroacetic acid (TFA)—1% β-mercaptoethanol (aliquots stored at −20° C). ^125I-labeled Aβ(1-40) is made in accordance with the procedure set forth by LeVine H., III, in Neurobiol. Aging, 1995;16:755, which is hereby incorporated by reference, or this reagent may be purchased from Amersham, Arlington Heights, Ill.
Final assay conditions: 30 μM soluble Aβ(1-40) in deionized water in assay buffer+20K to 50K cpm ^125I-labeled Aβ (1-40) per assay. Compound to be tested is dissolved in dimethylsulfoxide (DMSO), typically 5 to 50 mM stock, such that the final concentration of DMSO is<1% v/v in the assay.
Assay: Reaction mixture for 50 assays (on ice) is comprised of 0.1 to 0.2 μL of ^125I-labeled A^125I-labeled Aβ(1-40)+1 μL of soluble Aβ(1-40)+13.5 μL assay buffer per assay. The following are the amounts of the components of the reaction mixture sufficient for 50 assay wells.
1) The reaction mixture of above is prepared by mixing components and storing on ice.
b 2) 14.5 μL of the reaction mixture is pipetted into each of 50 wells on a polypropylene U-bottom 96-well microtiter plate on ice (Costar 3794).
(§3) 3) 1.7 μL of diluted compound to be tested is added to each well in a column of eight, including solvent control. Serial 3-fold dilutions from 1 mM (100 μM final) in assay buffer−urea=7 dilutions+zero. Each 96-well plate can therefore accommodate 11 samples+1 Congo Red control (0.039-5 μM final in 2-fold steps).
4) The plate with aluminum film (Beckman 538619) is sealed and incubated for 10 minutes on ice.
(§4) 5) The temperature is raised to 37° C. and incubated for 3 to 5 hours (depending on the lot of the peptide).
6) The aluminum film is removed and 200 μL/well of ice cold assay buffer with urea is added. The radiolabeled fibrils are collected by vacuum filtration through 0.2 μm pore size GVWP filters in 96-well plates (Millipore MAGV N22, Bedford, Mass.). The radioactivity of the filters is determined by using standard methods well-known to those skilled in the art.

[2] = target: T1, Aβ(1-40); assay: BASST (Beta-Amyloid Self-seeding, Thioflavin T), inhibitors of self-seeded amyloid fibril growth; format: biochemical; details: 30 μM soluble Aβ(1-40), 37° C. 3 to 5 hours, thioflavin T fluorescence; replicate values
Protocol: 2. BASST (Beta-Amyloid Self-seeding, Thioflavin T)
as §1, §2
Soluble Aβ(1-40)—2.2 mg/mL in deionized H2O (is stored in aliquots at −20° C.; is kept on ice when thawed) will self-seed after 1 week storage. Typically, the solution is stored until no lag phase is seen in the assay.
Final assay conditions: 30 μM soluble Aβ(1-40) in deionized water in assay buffer. Compound to be tested is dissolved in DMSO, typically 5 to 50 mM stock, such that the final concentration of DMSO is<1% v/v in the assay.
Assay: Reaction mixture for 50 assays (on ice) is comprised of 1 μL of soluble Aβ(1-40)+13.5 μL assay buffer per assay. The following are the amounts of the components of the reaction mixture that result in each of the 50 assay wells.
1) The reaction mix above is prepared by mixing the components and storing on ice.
2) 14.5 μL of reaction mixture is pipetted into each of 50 wells of a polystyrene U-bottom, 96-well microtiter plate (Corning 25881-96) on ice.
as §3
4) The plate with aluminum film is sealed and incubated for 10 minutes on ice.
as §4
6) The aluminum film is removed and 250 μL/well of 5 μM thioflavin T (ThT) [T-3516, Sigma-Aldrich] is added in 50 mM glycine-NaOH, pH 8.5. Fluorescence is read on a plate reader (ex=440 nm/20 nm; em=485 nm/20 nm) within 5 minutes.

[3] = target: T2, Aβ(1-40) peptide (Homo sapiens, UniProt P05067); assay: BAPA (Beta-Amyloid Peptide Aggregation), pH 6.0, filtration endpoint; format: biochemical
T2 construct: 10 μL 0.5 mg/mL Aβ(1-40) peptide in 20% HFIP
Protocol: 3. BAPA (Beta-Amyloid Peptide Aggregation)
This assay is used to provide a measure of inhibition by a compound against the aggregation behavior of the beta amyloid peptide.
The purpose of this assay is to provide a higher volume method of assaying the amount of beta amyloid aggregation using an endpoint assay based on filtration. In this assay, hexafluoroisopropanol (HFIP) is used to break down the initial amyloid peptide to a monomer state and a concentration of 33 μM is used, a concentration which is high enough so that aggregation will occur at pH 6.0 in several hours.
β-Amyloid Peptide Aggregation, pH 6.0 (BAPA)
To a 96-well plate (Costar 3794) is added 25 μL 50 mM Phosphate Buffer (pH 6.0), 10 μL 0.5 mg/mL Aβ(1-40) peptide in 20% HFIP+0.1 μL/assay radioiodinated ^125I Aβ(1-40) [^125I Aβ(1-40)], and 1 μL of the compound to be tested, starting at […] with a concentration of DMSO<1%. The reaction is incubated for 2 to 4 hours at room temperature. The reaction is stopped with 200 μL of 50 mM phosphate buffer, pH 6.0, and filtered through a 0.2 μm 96-well filter plate (Millipore MAGU N22). The filter plate is washed with 100 μL of the same phosphate buffer. Aggregation is detected on a Microbeta counter after impregnating the filters with Meltilex (1450-441) and is corrected for background.

[4] = target: T3, Aβ(1-42) (Homo sapiens, UniProt P05067); assay: BATYM assay, Aβ(1-42) aggregation by Thioflavin T fluorescence; format: biochemical; details: Aβ1-42 final concentration 100 μM, 37° C. 1 day, ThT fluorescence; (P)/(Q) marks undefined
T3 construct: Required Aβ(1-42) (California Peptide) is dried from its hexafluoroisopropanol (HFIP) stock solution; purchased California Peptide
Protocol: Required Aβ(1-42) (California Peptide) is dried from its hexafluoroisopropanol (HFIP) stock solution. The Aβ(1-42) is dissolved in DMSO and then mixed with phosphate buffered saline (PBS) (pH 7.4). The mixed Aβ(1-42) solution is filtered with a GVWP 0.22 μm syringe filter (Millipore, Bedford, Mass.). The compound to be tested in DMSO (50 times concentrate) is put into each well (0.5 μL/well) of a 96-well plate. The Aβ(1-42) solution is added into each well (25 μL/well). The plate is centrifuged at 1000 g for 5 minutes and incubated at 37° C. for 1 day (Aβ1-42; final concentration 100 μM).
After incubation Thioflavin T (ThT) (30 μM) solution in glycine-NaOH buffer (pH 8.5, 50 mM) is added into each well (250 μL/well), fluorescence is measured (ex=440/20 nm, em=485/20 nm) using a fluorescence plate reader. The inhibitory activity is calculated as the reduction of fluorescence with the following formula:
Inhibition (%)={(F(Aβ)−F(Aβ+compound)}/{F(Aβ)−F(solvent−compound)}×100.
The IC50s are calculated by a curve-fitting program using the equation given below. The data is obtained from two different experiments in triplicate.
x=concentration of tested compound (M),

[5] = 33 μM Aβ(1-40), pH 6.0, 2 to 4 hours at room temperature, (Q) mark undefined, read-out: BAPA (IC50 = μM)
[6] = marked (BAPA2), variant not described, read-out: BAPA (IC50 = μM), value marked (BAPA2)

T2 sequence (P05067 672-711): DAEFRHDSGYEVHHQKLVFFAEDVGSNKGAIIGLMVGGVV
T1 sequence (P05067 672-711): as above
T3 sequence (P05067 672-713): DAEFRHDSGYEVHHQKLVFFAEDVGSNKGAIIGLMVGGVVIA

Molecule | IC50 [1] | IC50 [2] | IC50 [3, 5] | IC50 [4] | melting point | IC50 [3, 6]
O=C(O)c1cc([N+](=O)[O-])cc2c1Nc1ccc(CCc3ccc(Cl)c(Cl)c3)cc1O2 [Compound 5, 7-[2-(3,4-dichlorophenyl)ethyl]-3-nitrophenoxazinecarboxylic acid] | 60 µM and > 100 µM | 3 µM and 1 µM | 0.9 µM | 7.89 µM and 3.02 µM | > 250 °C | –
O=C(O)c1cc([N+](=O)[O-])cc2c1Nc1cc3ccccc3cc1O2 [Compound 21, 3-nitrobenzo[b]phenoxazinecarboxylic acid] | 12 µM and 11 µM and 10 µM | 1 µM | 67 µM | 6.7 µM | > 230 °C | –
O=C(/C=C/c1ccc2c(c1)Oc1cc([N+](=O)[O-])cc(C(=O)O)c1N2)c1ccc(Cl)c(Cl)c1 [Compound 6, 7-[3-(3,4-Dichlorophenyl)-3-oxoprop-1-enyl]-3-nitrophenoxazinecarboxylic acid] | 21 µM and 22 µM and 25 µM | 1 µM | > 100 µM | 4.61 µM | > 200 °C | –
Nc1cc2c(c(C(=O)O)c1)Nc1ccc(CCCc3ccc(Cl)c(Cl)c3)cc1O2 [Compound 9, 3-Amino-7-[3-(3,4-dichlorophenyl)propyl]phenoxazine carboxylic acid] | 60 µM and > 100 µM | 3 µM | 86 µM | 8.75 µM | 213 to 216 °C | –
O=C(O)c1cc(OCc2ccccc2)cc2c1Nc1ccccc1O2 [Compound 4, 3-(Phenylmethoxy)phenoxazinecarboxylic acid] | 14 µM | 8.4 µM and 45 µM (2×) and 8.44 µM | – | – | – | > 50 µM
O=C(O)c1cc([N+](=O)[O-])cc2c1Nc1ccc(CCC(O)c3ccc(Cl)c(Cl)c3)cc1O2 (stereo not shown) [Compound 8, 7-[3-(3,4-Dichlorophenyl)-3-hydroxypropyl]-3-nitrophenoxazine carboxylic acid] | > 100 µM and 100 µM (2×) | 0.6 µM | 100 µM | 4.18 µM | 218 to 220 °C | –
3-Nitrophenoxazinecarboxylic acid [Compound 3] | 8 µM | 13 µM (2×) and 40 µM (2×) and 23 µM (2×) | 62 µM | – | – | > 100 µM
O=C(O)c1cc([N+](=O)[O-])cc2c1Nc1ccc(CCCc3ccc(Cl)c(Cl)c3)cc1O2 [Compound 7, 7-[3-(3,4-Dichlorophenyl)propyl]-3-nitrophenoxazine carboxylic acid] | 30 µM and 20 µM and 6 µM | 0.5 µM | > 100 µM | 1.88 µM | – | –
O=C(O)c1cc([N+](=O)[O-])cc2c1Nc1cc(-c3ccccc3)ccc1O2 [Compound 2, 3-nitro-8-phenylphenoxazinecarboxylic acid] | 60 µM (2×) and 70 µM | 1 µM | 5 µM | 4.15 µM | – | –
